# Assay results published in US7241753B2, “Method of treatment of prostate cancer” (priority 2000, dated 2007).
# Read-outs that look alike come from different tables or passages of the source.
# Tests used:
# breast cancer cell lines = conditions: in vitro; cited from earlier work
# myeloid cell line = conditions: in vitro; cited from earlier work
# [1] = test system: Dunning AT-1 hormone-refractory prostate cancer tumor
# Description: (§1) The Dunning prostate cancer cell-line, AT-1, is a completely hormone-refractory tumor. It lacks measurable quantities of receptors for androgens as well as estrogens. As a result, the clinical behavior of this tumor is not influenced by the presence or absence of sex steroids. The doubling time of the tumor is 2.5 days, which makes it one of the most […] of all hormone-refractory Dunning tumors. It has a low (less than 5%) tendency for metastasis. The Dunning tumors are suitable for evaluating immunologic experiments with prostate cancer as they grow in immunocompetent animals.
# (§2) Biopsies from excised tumors where investigated microscopically using the TUNEL-technique. Tumor biopsies were investigated with immuno-cytochemistry and antibodies for macrophages and T-lymphocytes.
# In the second experiment, rats were treated as in experiment 1, but tumor size was not allowed to exceed 10 mm in diameter. This experiment was made to further evaluate the influence of tumor size on the outcome of treatment.
# Animals were divided in four groups:
# (§3) Group 4 animals served as tumor-bearing controls.
# After animals had been sacrificed, freshly frozen tumor samples were examined for apoptosis using the TUNEL technique.
# [2] = test system: Dunning AT-1 hormone-refractory prostate cancer tumor; assay: Experiment 1: Dunning AT-1 tumor transplanted subcutaneously in rats, tumors about 17 mm at start of treatment; format: in vivo, Copenhagen-Fisher male rat
# Description: as §1, §2
# In this experiment Dunning AT-1 tumor was passed through two Copenhagen-Fisher male rats and then transplanted in a single piece, approximately 10 mm^3, which was placed subcutaneously on a third Copenhagen-Fisher male rat's dorsal side. Tumors were allowed to grow to approximately 17 mm in diameter before treatment started. Four groups of six rats each were used.
# Freund's complete adjuvant is used to potentiate immune reactivity and to trigger a T-cell response.
# Group 3 animals received only complete Freund's adjuvant, 0.1 mL intra-tumorally.
# as §3
# Tumors were measured by slide caliper at the onset of experiment. This was repeated at the end of experiment when animals were sacrificed, tumors excised, and tumor weight was noted.
# [3] = versus control, end of experiment 1
Structure (SMILES),apoptotic effect (breast cancer cell lines),apoptotic effect (myeloid cell line),time for which tumor growth was arrested following treatment ([1]; single injection of 10 mg αAED),mean tumor weight ([2]; end of experiment 1) [g],median tumor weight ([2]; end of experiment 1) [g],Tumor Diameter (mm) ([2]; end of experiment 1 (sacrifice after 3 weeks)),"Decrease in Tumor Size (mm) [2, 3] [mm]","Percent Reduction [2, 3] [%]","mean tumor weight ([1]; single injection of 80 mg βAED, control 5.8 g) [g]","tumor growth observed macroscopically ([1]; single injection, αAED animals sacrificed after 96 hours)"
"C[C@]12CC[C@H]3[C@@H](CC=C4C[C@@H](O)CC[C@@]43C)[C@@H]1CC[C@H]2O [αAED, Δ5-androstene-3-β, 17α-diol]",apoptotic effect,apoptotic effect,at least 96 hours,,,,,,,
"C[C@]12CC[C@H]3[C@@H](CC=C4C[C@@H](O)CC[C@@]43C)[C@@H]1CC[C@@H]2O [βAED, Δ5-androstene-3-β, 17β-diol]",,,,11.6,10,11.6,7.6,39.58,2.9,clear retardation of tumor growth
